Data as given in ChEMBL document CHEMBL4190267, “Discovery of potent molecular chimera (CM358) to treat human metastatic melanoma” (Eur J Med Chem, 2017).
Calls of active or inactive are those of the source. The rule behind the calls is not given here.

Legend:
WM 266-4 [1] = assay: Induction of apoptosis in human WM266.4 cells assessed as early apoptotic cells at 10 uM after 2 hrs by Annexin V-FITC/propidium iodide staining based flow cytometry (reference value: 2.64%); assay type: functional
PC-3 = assay: Growth inhibition of human PC3 cells preincubated for 6 hrs followed compound washout measured after 24 hrs by XTT assay; assay type: functional
WM 266-4 [2] = assay: Growth inhibition of human WM266.4 cells preincubated for 6 hrs followed compound washout measured after 24 hrs by XTT assay; assay type: functional
A 172 = assay: Growth inhibition of human A172 cells preincubated for 6 hrs followed compound washout measured after 24 hrs by XTT assay; assay type: functional
WM 266-4 [3] = assay: Growth inhibition of human WM266.4 cells at 1 uM incubated up to 96 hrs by XTT assay; assay type: functional, cell-based
WM 266-4 [4] = assay: Growth inhibition of human WM266.4 cells at 5 uM incubated up to 72 hrs by XTT assay relative to control; assay type: functional; settings: WM 266-4, 72 h, read-out: GI
WM 266-4 [5] = assay: Growth inhibition of human WM266.4 cells at 25 uM after 24 hrs by XTT assay; assay type: functional, cell-based
[6] = Half life in human WM266.4 cells by LC-MS analysis; assay type: ADME, cell-based, WM 266-4
[7] = Drug metabolism in human WM266.4 cells assessed as chlorambucil after 48 hrs by LC-MS analysis; assay type: ADME, cell-based; settings: wm 266-4, 48 h
[8] = Drug metabolism in human WM266.4 cells assessed as amonafide after 48 hrs by LC-MS analysis; assay type: ADME, cell-based; settings: wm 266-4, 48 h
WM 266-4 [9] = assay: Induction of apoptosis in human WM266.4 cells assessed as live cells at 10 uM after 2 hrs by Annexin V-FITC/propidium iodide staining based flow cytometry (reference value: 94.7%); assay type: functional
WM 266-4 [10] = assay: Induction of apoptosis in human WM266.4 cells assessed as late apoptotic cells at 10 uM after 2 hrs by Annexin V-FITC/propidium iodide staining based flow cytometry (reference value: 1.41%); assay type: functional
WM 266-4 [11] = assay: Induction of apoptosis in human WM266.4 cells assessed as late apoptotic cells at 10 uM after 8 hrs by Annexin V-FITC/propidium iodide staining based flow cytometry (reference value: 1.41%); assay type: functional
WM 266-4 [12] = assay: Induction of apoptosis in human WM266.4 cells assessed as necrotic cells at 10 uM after 8 hrs by Annexin V-FITC/propidium iodide staining based flow cytometry (reference value: 1.22%); assay type: functional
WM 266-4 [13] = assay: Induction of apoptosis in human WM266.4 cells assessed as live cells at 10 uM after 24 hrs by Annexin V-FITC/propidium iodide staining based flow cytometry (reference value: 94.7%); assay type: functional
WM 266-4 [14] = assay: Induction of apoptosis in human WM266.4 cells assessed as early apoptotic cells at 10 uM after 24 hrs by Annexin V-FITC/propidium iodide staining based flow cytometry (reference value: 2.64%); assay type: functional
WM 266-4 [15] = assay: Induction of apoptosis in human WM266.4 cells assessed as live cells at 25 uM after 2 hrs by Annexin V-FITC/propidium iodide staining based flow cytometry (reference value: 94.7%); assay type: functional
WM 266-4 [16] = assay: Induction of apoptosis in human WM266.4 cells assessed as late apoptotic cells at 25 uM after 2 hrs by Annexin V-FITC/propidium iodide staining based flow cytometry (reference value: 1.41%); assay type: functional
WM 266-4 [17] = assay: Induction of apoptosis in human WM266.4 cells assessed as necrotic cells at 25 uM after 2 hrs by Annexin V-FITC/propidium iodide staining based flow cytometry (reference value: 1.22%); assay type: functional
WM 266-4 [18] = assay: Induction of apoptosis in human WM266.4 cells assessed as early apoptotic cells at 25 uM after 8 hrs by Annexin V-FITC/propidium iodide staining based flow cytometry (reference value: 2.64%); assay type: functional
WM 266-4 [19] = assay: Induction of apoptosis in human WM266.4 cells assessed as late apoptotic cells at 25 uM after 8 hrs by Annexin V-FITC/propidium iodide staining based flow cytometry (reference value: 1.41%); assay type: functional
WM 266-4 [20] = assay: Induction of apoptosis in human WM266.4 cells assessed as necrotic cells at 25 uM after 8 hrs by Annexin V-FITC/propidium iodide staining based flow cytometry (reference value: 1.22%); assay type: functional
WM 266-4 [21] = assay: Induction of apoptosis in human WM266.4 cells assessed as necrotic cells at 25 uM after 24 hrs by Annexin V-FITC/propidium iodide staining based flow cytometry (reference value: 1.22%); assay type: functional
WM 266-4 [22] = assay: Induction of necrosis in human WM266.4 cells at 25 uM after 2 to 6 hrs by Annexin V-FITC/propidium iodide staining based fluorescence microscopic method; assay type: functional, cell-based
WM 266-4 [23] = assay: Cell cycle arrest in human WM266.4 cells assessed as accumulation at S phase at 10 uM after 2 hrs by propidium iodide staining based flow cytometry (reference value: 27%); assay type: functional
WM 266-4 [24] = assay: Cell cycle arrest in human WM266.4 cells assessed as accumulation at G1 phase at 10 uM after 8 hrs by propidium iodide staining based flow cytometry (reference value: 59%); assay type: functional
WM 266-4 [25] = assay: Cell cycle arrest in human WM266.4 cells assessed as accumulation at G1 phase at 10 uM after 24 hrs by propidium iodide staining based flow cytometry (reference value: 59%); assay type: functional
WM 266-4 [26] = assay: Cell cycle arrest in human WM266.4 cells assessed as accumulation at S phase at 10 uM after 24 hrs by propidium iodide staining based flow cytometry (reference value: 27%); assay type: functional
WM 266-4 [27] = assay: Cell cycle arrest in human WM266.4 cells assessed as accumulation at G2 phase at 10 uM after 24 hrs by propidium iodide staining based flow cytometry (reference value: 11%); assay type: functional
Mus musculus [28] = assay: Toxicity in athymic Foxn1 nu mouse assessed as abnormal gross behavioral changes at 10 mg/kg, ip administered once daily for 3 days followed by resting period of 4 days repeated for 4 weeks; assay type: organism-based; settings: in vivo
Mus musculus [29] = assay: Toxicity in athymic Foxn1 nu mouse assessed as abnormal physiological changes at 10 mg/kg, ip administered once daily for 3 days followed by resting period of 4 days repeated for 4 weeks; assay type: organism-based; settings: in vivo
WM 266-4 [30] = assay: (§1) Antitumor activity against human WM266.4 cells xenografted in athymic Foxn1 nu mouse assessed as tumor growth inhibition at 10 mg/kg, ip administered once daily for 3 days followed by resting period of 4 days repeated for 4 weeks starting from 5 days post tumor inoculation measured on day 21 relative to control; assay type: functional; settings: WM 266-4, ip, read-out: TGI
WM 266-4 [31] = assay: as §1, with “25” for “10”; assay type: functional; settings: WM 266-4, ip, read-out: TGI
WM 266-4 [32] = assay: Antitumor activity against human WM266.4 cells xenografted in athymic Foxn1 nu mouse assessed as tumor growth inhibition at 5 mg/kg, ip administered once daily for 7 days followed by resting period of 2 days repeated for 4 weeks starting from 5 days post tumor inoculation measured on day 21; assay type: functional, organism-based
WM 266-4 [33] = assay: Antitumor activity against human WM266.4 cells xenografted in athymic Foxn1 nu mouse assessed as tumor growth inhibition at 10 mg/kg, ip administered once daily for 3 days followed by resting period of 4 days repeated for 4 weeks starting from 5 days post tumor inoculation measured on day 19; assay type: functional, organism-based
WM 266-4 [34] = assay: Antitumor activity against human WM266.4 cells xenografted in athymic Foxn1 nu mouse assessed as tumor growth inhibition at 10 mg/kg, ip administered once daily for 7 days followed by resting period of 2 days repeated for 4 weeks starting from 5 days post tumor inoculation measured on day 19; assay type: functional, organism-based

SMILES: CN(C)CCN1C(=O)c2cccc3cc(NC(=O)CCCc4ccc(N(CCCl)CCCl)cc4)cc(c23)C1=O.O=C(O)C(F)(F)F
- Activity (WM 266-4 [1]): 5.05%
- GI50 (PC-3): 7.1 µM
- GI50 (WM 266-4 [2]): 8.8 µM
- GI50 (A 172): 7.5 µM
- growth inhibition (GI) (WM 266-4 [3]): inactive
- inhibition of growth at 5 µM (WM 266-4 [4]): 100%
- growth inhibition (GI) (WM 266-4 [5]): Active
- half-life [6]: 25 h
- Drug metabolism [7]: Metabolite_Notdetected
- Drug metabolism [8]: Metabolite_Notdetected
- Activity (WM 266-4 [9]): 86.9%
- Activity (WM 266-4 [10]): 1.46%
- Activity (WM 266-4 [11]): 1.59%
- Activity (WM 266-4 [12]): 9.33%
- Activity (WM 266-4 [13]): 84.5%
- Activity (WM 266-4 [14]): 3.9%
- Activity (WM 266-4 [15]): 72.9%
- Activity (WM 266-4 [16]): 3.94%
- Activity (WM 266-4 [17]): 16.4%
- Activity (WM 266-4 [18]): 5.46%
- Activity (WM 266-4 [19]): 5.47%
- Activity (WM 266-4 [20]): 27.9%
- Activity (WM 266-4 [21]): 21.4%
- Activity (WM 266-4 [22]): Active
- Activity (WM 266-4 [23]): 45%
- Activity (WM 266-4 [24]): 35%
- Activity (WM 266-4 [25]): 36%
- Activity (WM 266-4 [26]): 38%
- Activity (WM 266-4 [27]): 24%
- Activity (Mus musculus [28]): Non-Toxic
- Activity (Mus musculus [29]): Non-Toxic
- inhibition in vivo at 10 mg/kg (WM 266-4 [30]): 40%
- inhibition in vivo at 25 mg/kg (WM 266-4 [31]): 46%
- TGI (WM 266-4 [32]): inactive
- TGI (WM 266-4 [33]): Active
- TGI (WM 266-4 [34]): Active
